According to US10837058B2, “Markers of papillary and reticular fibroblasts and uses thereof” (CHANEL PARFUMS BEAUTE, priority 2011, dated 2020):

Key:
Format in all cases: cell-based, human
[1] = test system: reticular or papillary fibroblasts; assay: Compound screening on reticular or papillary fibroblasts, qPCR of 3 papillary and 3 reticular markers; settings: high=0.01% v/v, low=0.0001% v/v, 24 hrs; CCRL1, NTN1, PDPN, MGP, PPP1R14A, TGM2; FIG. 2
Experimental: The fibroblasts were isolated and cultured as described above (example 1).
12000 reticular or papillary fibroblasts were seeded in 12 well culture plates (Costar). The fibroblasts were cultured for 5 days until 90% of the surface area was covered. Two different concentrations (low/high) of compounds were applied for 24 hrs. Pictures were taken before and after application. No differences in morphology and were observed (data not shown). RNA was isolated as described in example 1.
qPCR analysis was performed using 3 papillary (CCRL1, NTN1 and PDPN) and 3 reticular (MGP, PPP1R14A and TGM2) markers, according to example 1. The expression was normalized using two reference genes (SND1 and EI24). The effect of verbascoside was determined by comparing the expression of the genes to the expression of vehicle treated fibroblasts.

papillary fibroblasts [2] = assay: TGF-β1 treatment of monolayer papillary fibroblasts, marker expression by qPCR; settings: TGF-β1 2 or 10 ng/mL, 2 or 4 days
Experimental: cDNA was generated of 1 μg RNA using the iScript cDNA synthesis kit (BioRad, Veenendaal, The Netherlands) according to manufacturer's instructions. PCR reactions were based on the SYBR Green method (BioRad) and consisted of 2× Sybr Green Mastermix, 1 ng cDNA template and 500 nM of forward and reverse primers. The PCRs were run on the MyIQ system (BioRad). The PCR cycles were: 3,5 minutes at 95 C to activate the polymerase, 35 cycles of 20 sec 95 C and 40 sec 60 C, followed by the generation of a melt curve. Primers were checked before on dilution series of normal fibroblasts cDNA. References genes were analyzed with the GeNorm method (20). Expression analysis was performed with the BioRad Software (iQ5) and was based on the delta delta Ct method with the reference genes that were most stably expressed in the GeNorm analysis.
(§1) Monolayer cultures of papillary fibroblasts were treated with TGF-β1, 2 or 10 ng/mL, for 2 or 4 days. Then the expression of the reticular and papillary markers was measured by qPCR and by IHC staining on the cultures.

papillary fibroblasts [3] = assay: TGF-β1 treatment of monolayer papillary fibroblasts, IHC staining and morphology; settings: TGF-β1 2 or 10 ng/mL, 2 or 4 days
Experimental: For IHC on monolayer cell cultures, fibroblasts were grown on glass slides until nearly confluent, washed in PBS and fixed with 4% formaldehyde. Staining was visualized by a secondary antibody with a fluorescent dye (Cy3). DAPI was used as counterstain.
as §1

Compound	effect on reticular/papillary marker gene signature (qPCR, vs vehicle treated fibroblasts) [1]	differentiation of papillary fibroblasts as measured by qPCR (papillary fibroblasts [2]; monolayer cell cultures)	expression of papillary markers (qPCR) (papillary fibroblasts [2]; data not shown)	expression of reticular markers (qPCR) (papillary fibroblasts [2]; data not shown)	myofibroblast differentiation: a-SMA expression (papillary fibroblasts [3])	myofibroblast differentiation: morphological changes (papillary fibroblasts [3])	papillary marker PDPN by IHC staining (papillary fibroblasts [3])	reticular marker TGM2 by IHC staining (papillary fibroblasts [3])
C[C@@H]1O[C@@H](O[C@@H]2[C@@H](O)[C@H](OCCc3ccc(O)c(O)c3)O[C@H](CO)[C@H]2OC(=O)/C=C/c2ccc(O)c(O)c2)[C@H](O)[C@H](O)[C@H]1O [Verbascoside]	able to alter the reticular signature into a papillary signature	–	–	–	–	–	–	–
TGF-β1: TGF-β1, can induce differentiation of fibroblasts to myofibroblasts	–	caused differentiation to reticular fibroblasts	decreased	increased	increased a-SMA expression	increase in cell size	loss of papillary marker PDPN	gain of reticular marker TGM2
